Source: ChEMBL document CHEMBL1201862, “PubChem BioAssay data set” (2004)
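The compound was tested at five concentrations on cells cultured in 96-well plates, with a 48-hour exposure period. Abbreviation: GI50, concentration required for 50% inhibition of growth.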 Calls of active or inactive are those of the source. No stated cut-off is given here; in the data, active = GI50 up to about 1.1 µM and inactive = higher.

Key:
Assay in all cases: NCI anticancer screen, dose series, 48 h
A498 = system: A498
CCRF-CEM = system: CCRF-CEM
EKVX = system: EKVX
HL-60 = system: HL-60
HT-29 = system: HT-29
KM-20L2 = system: KM-20L2
OVCAR-4 = system: OVCAR-4
OVCAR-5 = system: OVCAR-5
OVCAR-8 = system: OVCAR-8
RPMI-8226 = system: RPMI-8226
RXF 393 = system: RXF 393
SF-295 = system: SF-295
SF-539 = system: SF-539
SK-MEL-28 = system: SK-MEL-28
SK-MEL-2 = system: SK-MEL-2
SK-OV-3 = system: SK-OV-3
SW-620 = system: SW-620
U-251 = system: U-251
UO-31 = system: UO-31
M14 = system: M14

Measured: GI50

C=C1C(=O)O[C@H]2C1[C@H](OC(=O)/C(C)=C\COC(C)=O)C[C@]1(CO1)[C@@H]1[C@H](O)[C@H]3O[C@@]3(C)[C@@H]12 (stereo partly drawn)
inactive: A498 61.5 µM | CCRF-CEM 10.5 µM | EKVX 26.3 µM | HL-60 13.9 µM | HT-29 19.1 µM | KM-20L2 30.5 µM | OVCAR-4 27 µM | OVCAR-5 > 71.6 µM | OVCAR-8 24.8 µM | RPMI-8226 13.3 µM | RXF 393 16.8 µM | SF-295 > 61 µM | SF-539 27 µM | SK-MEL-28 15.5 µM | SK-MEL-2 20.7 µM | SK-OV-3 > 67 µM | SW-620 13.2 µM | U-251 21.7 µM | UO-31 > 88.7 µM

O=C(Nc1ccc(C(F)(F)F)cc1[N+](=O)[O-])C(=O)Nn1c(S)nc2ccccc2c1=O
inactive: A498 > 100 µM | CCRF-CEM > 100 µM | EKVX 33.3 µM | HL-60 > 100 µM | HT-29 > 100 µM | KM-20L2 > 100 µM | OVCAR-4 > 100 µM | OVCAR-5 > 100 µM | OVCAR-8 > 100 µM | RPMI-8226 > 100 µM | RXF 393 > 100 µM | SF-295 > 100 µM | SF-539 > 100 µM | SK-MEL-28 > 100 µM | SK-MEL-2 > 100 µM | SK-OV-3 > 100 µM | SW-620 > 100 µM | U-251 > 100 µM | UO-31 > 100 µM

C=C1C(=O)OC2/C=C(\C)CC(O)/C=C(/CO)CC(OC(=O)/C(C)=C/C)C12 (stereo not drawn)
inactive: A498 26.8 µM | CCRF-CEM 13.9 µM | EKVX 23 µM | HL-60 13.3 µM | HT-29 54.6 µM | KM-20L2 71.1 µM | OVCAR-4 117 µM | OVCAR-5 147 µM | OVCAR-8 24 µM | RPMI-8226 7.1 µM | RXF 393 14.4 µM | SF-295 163 µM | SF-539 29 µM | SK-MEL-28 14.8 µM | SK-MEL-2 51.9 µM | SK-OV-3 158 µM | SW-620 17.6 µM | U-251 86.1 µM | UO-31 173 µM

CCO/N=[N+](\[O-])N(CC)CC
inactive: A498 > 100 µM | CCRF-CEM > 100 µM | EKVX > 100 µM | HL-60 > 100 µM | HT-29 > 100 µM | KM-20L2 > 100 µM | M14 > 100 µM | OVCAR-5 > 100 µM | OVCAR-8 > 100 µM | RXF 393 > 100 µM | SF-295 > 100 µM | SF-539 > 100 µM | SK-MEL-28 > 100 µM | SK-MEL-2 > 100 µM | SK-OV-3 > 100 µM | SW-620 > 100 µM | UO-31 > 100 µM

COc1ccc(/C(Cl)=C(\C=O)c2ccc(Cl)cc2)cc1OC
inactive: A498 23.7 µM | CCRF-CEM 2.98 µM | EKVX 4.47 µM | HL-60 2.55 µM | HT-29 4.97 µM | KM-20L2 7.62 µM | M14 22.4 µM | OVCAR-4 5.12 µM | OVCAR-5 85.1 µM | OVCAR-8 4.03 µM | RPMI-8226 3.32 µM | RXF 393 6.01 µM | SF-295 4.15 µM | SF-539 9.79 µM | SK-MEL-2 3.71 µM | SK-OV-3 34.8 µM | SW-620 3.75 µM | U-251 3.85 µM | UO-31 4.68 µM

Nc1nc(SCCC/C=C/B(O)O)nc2c1ncn2C1OC(CO)C(O)C1O (stereo not drawn)
inactive: A498 > 243 µM | CCRF-CEM > 243 µM | EKVX > 243 µM | HL-60 > 243 µM | HT-29 > 243 µM | KM-20L2 > 243 µM | M14 > 243 µM | OVCAR-4 > 243 µM | OVCAR-5 > 243 µM | OVCAR-8 > 243 µM | RXF 393 > 243 µM | SF-295 > 243 µM | SF-539 > 243 µM | SK-MEL-28 > 243 µM | SK-MEL-2 > 243 µM | SK-OV-3 > 243 µM | SW-620 > 243 µM | U-251 > 243 µM

Cn1nc2ccc3nccc(NCCNCCCl)c3c2n1
inactive: CCRF-CEM > 100 µM | EKVX > 100 µM | HL-60 > 100 µM | HT-29 > 100 µM | KM-20L2 > 100 µM | M14 > 100 µM | OVCAR-4 > 100 µM | OVCAR-5 > 100 µM | OVCAR-8 > 100 µM | RPMI-8226 > 100 µM | RXF 393 > 100 µM | SF-295 > 100 µM | SF-539 > 100 µM | SK-MEL-28 > 100 µM | SK-MEL-2 > 100 µM | SK-OV-3 > 100 µM | SW-620 > 100 µM | UO-31 > 100 µM

CN(Cc1cnc2c(N)nc(N)nc2n1)c1ccc(Cl)cc1
inactive: A498 31.7 µM | CCRF-CEM > 100 µM | EKVX > 100 µM | HL-60 > 100 µM | M14 73.8 µM | OVCAR-5 > 100 µM | OVCAR-8 21.5 µM | RPMI-8226 > 100 µM | RXF 393 17 µM | SF-295 72.1 µM | SF-539 24.3 µM | SK-MEL-2 29 µM | SK-OV-3 26.2 µM | SW-620 > 100 µM | U-251 > 100 µM | UO-31 47.1 µM

COc1cc([N+](=O)[O-])ccc1NC(=O)C(F)(F)F
inactive: A498 > 100 µM | CCRF-CEM > 100 µM | EKVX > 100 µM | HL-60 > 100 µM | HT-29 65.3 µM | M14 > 100 µM | OVCAR-4 > 100 µM | OVCAR-5 > 100 µM | OVCAR-8 > 100 µM | RPMI-8226 > 100 µM | SF-295 > 100 µM | SF-539 > 100 µM | SK-MEL-28 > 100 µM | SK-MEL-2 > 100 µM | SK-OV-3 > 100 µM | SW-620 > 100 µM | U-251 > 100 µM | UO-31 84.3 µM
